Results published in patent publication US12458612B2, “Combination therapy comprising compounds of formula (I) and GLP-1 receptor agonists” (GENFIT, priority 2019, dated 2025).

Assays:
NASH-B6 mice = assay: Body weight, adiposity and food intake, 8 weeks in NASH-B6 mice (Example 6); type: in vivo; conditions: liraglutide 0.02 mg/kg/day, 8 weeks (FIG. 13B)
Method: Male C57BL/6NTac mice (Taconic, USA) were fed with the GAN diet (D09100310 Research Diet) 31 weeks prior to study start to induce NASH pathology (NASH-B6 model). Prior to treatment, blood was collected by retro-orbital sinus puncture after a 6 h-fasting period to measure plasma ALT, AST, TIMP Metallopeptidase Inhibitor 1 (TIMP1, a surrogate marker of liver fibrosis). Blood glucose was measured directly from the tail vein using a WellionVet glucometer (CALEA) after a 6 h-fasting period. Ketone bodies (KB) was also measured directly from the tail vein using a FreeStyle Optium Neo ketometer. Mice were randomized into treatment groups (n=10/group) based on body weight, glycemia, ketonemia and plasma ALT, AST and TIMP1. They received either vehicles, elafibranor (3 mg/kg/day, per os), liraglutide (0.01 mg/kg, BID, SC) or both elafibranor and liraglutide for 8 weeks. To avoid GLP-1 receptor agonist-induced hypophagia, an up-titration protocol was applied for liraglutide during the first 3 weeks of treatment (starting with 0.001 mg/kg BID). Vehicle-dosed chow-fed mice served as additional controls (R03-10 U8211G10R, SAFE).
Body weight and food intake were monitored each day during the treatment period. On the last day of treatment, serum samples were obtained after retro-orbital sinus puncture blood sampling and mice were sacrificed. […]

DIO-NASH mice [1] = assay: Hepatic triglyceride content, 40 days in DIO-NASH mice (Example 1); type: in vivo; conditions: ELA 10 mg/kg/day, SEMA 10 nmol/kg/day, 40 days (FIG. 3)
Method: (§1) The effects of elafibranor alone, semaglutide alone and the combination of both were assessed in DIO-NASH mice (C57BL6JRj mice fed with a Amylin Liver NASH Model diet (AMLN) (Research Diet, 40% fat (18% trans-fat), 40% carbohydrate (20% fructose), and 2% cholesterol) (36 weeks prior to study start). 41 weeks old male DIO-NASH mice were fed a vehicule (n=12), or vehicule supplemented with elafibranor (10 mg/kg/day), or semaglutide alone (10 nmol/kg) (titration to final dose over 5 days using increments of 0.08 mg/mL) or in combination (n=12 per group).
On the last day of treatment, plasma samples were obtained after cardiac puncture blood sampling and mice were sacrificed. The liver was rapidly excised for biochemical and histological analyses.
Approximately 100 mg of frozen liver tissue were homogenized with a tissue homogenizer (Precellys®24, Bertin Technologies, France) in 150 mM NaCl buffer, containing 15.4 mM NaN3. Lipid fractions in homogenates were extracted with chloroform—methanol (2:1, v/v) followed by measurement of the triglycerides (Biolabo cat #80019).

DIO-NASH mice [2] = assay: Plasma ALT and CRP in DIO-NASH mice, low/high dose semaglutide (Example 7); type: in vivo
Method: (§2) The effects of elafibranor alone, semaglutide (low and high doses) alone and their combination were assessed in DIO-NASH mice (C57BL6JRj mice fed with a Amylin Liver NASH Model diet (AMLN) (Research Diet, 40% fat (18% trans-fat), 40% carbohydrate (20% fructose), and 2% cholesterol) (35 weeks prior to study start). Mice with biopsy confirmed steatosis (score≥2) and fibrosis (score≥1) were randomized into treatment groups (n=12 per group). Mice received either vehicles, elafibranor (10 mg/kg/day, per os), low-dose semaglutide (0.3 nmol/kg/day, SC), high-dose semaglutide (10 nmol/kg/day, SC) or elafibranor (10 mg/kg/day) and semaglutide (0.3 nmol/kg/day) in combination.
On the last treatment day, plasma samples were obtained after cardiac puncture blood sampling and mice were sacrificed. The liver was rapidly excised for transcriptomic analyses.
Alanine aminotransferase (ALT) level was measured using Cobas™ C-501 autoanalyzer according to the manufacturer's instructions. C-reactive protein (CRP) concentration was measured by ELISA (Mouse C-Reactive Protein/CRP Immunoassay MCRP00, R&D Systems).

DIO-NASH mice [3] = assay: Liver transcriptomic and gene ontology analysis in DIO-NASH mice (Example 7); type: in vivo
Method: as §2, with “combination. […]” for “combination.”
Total RNA was isolated from mice livers using Nucleospin® 96 RNA kit (Macherey Nagel) following manufacturer's instructions. […] The parameters used are an end minimum quality level of 25 and a minimum read length of 50. The unaligned reads were aligned to the Mus musculus mm10 reference genome using the software STAR version 2.5.3. […] Briefly, the count matrix produced by FeatureCounts was analyzed by the DESeqDataSetFromMatrix( ) function followed by the DEseq( ) function from the DESeq2 library. […]
Each metascape analysis was exported as Excel file. The files were imported in R V using the read_excel function from the readxl library (version 1.3.1). […]

DIO-NASH mice [4] = assay: Histological assessment of NASH, 12 weeks in DIO-NASH mice (Example 3); type: in vivo; conditions: monotherapy low dose ELA 10 mg/kg/day or SEMA 0.3 nmol/kg/day
Method: Male C57BL/6JRj mice were fed with the AMLN diet 35 weeks prior to study start (DIO-NASH model). Mice with biopsy confirmed steatosis (score ≥2) and fibrosis (score ≥1) were randomized into treatment groups (n=12-14 per group). Mice received either vehicles, elafibranor (10 mg/kg/day, per os), semaglutide (0.3 nmol/kg/day, SC) or both elafibranor and semaglutide for 12 weeks. Suboptimal drug doses were used in this study. To avoid SEMA-induced hypophagia, an up-titration protocol was applied during the first 3 weeks of treatment.
On the last day of treatment, plasma samples were obtained after cardiac puncture blood sampling and mice were sacrificed. The liver was rapidly excised for histology and biochemical and transcriptomic analyses.
Liver sections were prepared and stained with hematoxylin eosin safranin (HES) as described in Example 1. The histological features of NASH (steatosis, ballooning, lobular inflammation and fibrosis) were assessed using the NASH Clinical Research Network Scoring System by operators blinded to the experimental groups (Kleiner 2005, Brunt 1999). Steatosis score, activity index (hepatocyte ballooning+lobular inflammation) and NAFLD activity score (NAS) were calculated. Number of inflammatory foci was counted per field using a 200× magnification.

DIO-NASH mice [5] = assay: Glycemia (plasma glucose), 40 days in DIO-NASH mice (Example 1); type: in vivo; conditions: ELA 10 mg/kg/day, SEMA 10 nmol/kg/day, 40 days (FIG. 4)
Method: as §1
(§3) Sampling from tail vein were done during the protocol for, blood glucose, plasma insulin, alanine transaminase, aspartate transaminase, triglycerides, total cholesterol dosages.
The plasma glucose level was measured using the Randox kit for Daytona automate (Randox, cat #GL 3815) according to the manufacturer's recommendations. This method was based on a colorimetric assay without any deproteinization of the sample. Briefly, glucose oxidase digestion of the sample led to hydrogen peroxide synthesis. In the presence of phenol and 4-aminophenazone, the hydrogen peroxide was catalyzed by a peroxidase and formed a dye: the quinoneimin. The coloration intensity was directly proportional to the glucose concentration and was measured at 505 nm. Results were expressed in mg/dL.

DIO-NASH mice [6] = assay: Insulinemia (plasma insulin), 40 days in DIO-NASH mice (Example 1); type: in vivo; conditions: ELA 10 mg/kg/day, SEMA 10 nmol/kg/day, 40 days (FIG. 5)
Method: as §1, §3
The plasmatic insulin was measured using a solid phase two-site enzyme immunoassay from Crystal Chem Inc. (cat #90010). Briefly, 95 μL of guinea-pig anti-insulin serum and 5 μL of diluted sample (or standard) were dispensed per well into a 96-well plate. […] The reaction was then stopped by adding 100 μL of stop solution and absorbance was immediately measured at 450 nm (subtracting wave length: 630 nm). The intensity of the coloration was proportional to the amount of insulin initially present in the sample and was calculated using a standard serum. […]

[7] = system: TNFα secretion in LPS-activated macrophages (THP-1); assay: TNFα secretion in LPS-activated THP-1 macrophages, combination matrix, HTRF (Example 4); type: cell-based, Human; conditions: GLP-1 receptor agonist alone; LPS-activated THP1 macrophages (FIGS. 11A-B)
Method: Human_THP-1 monocytes were seeded at a density of 25,000 cells per well in 384-well plate in RPMI1640 (Gibco, 21875) supplemented with 10% FBS, 1% Penicillin-streptomycin (Gibco, 15140122) and 25 mM Hepes (Gibco, 15630080) and differentiated into macrophages using PMA (Phorbol 12-myristate 13-acetate, Sigma, P8139) at the final concentration of 100 ng/ml for 24 hours.
A 2 component combination matrix was prepared. ELA and GLP-1 receptor agonists stocks were serially diluted in DMSO in 3-points series in a row (ELA) and a 8-points series in a column of a 96-well plate for GLP1RA. Subsequently, the 3×8 combination matrix was generated by 1:1 mixing of all single agent concentrations.
After 24 hrs with PMA, medium was removed, and replaced by serum free RPMI. […]
Synergism between compounds was determined using the Excess Over Bliss (EOB) method.
The values obtained in the TNFα HTRF assay were first transformed into percentage inhibitions over LPS control. Then, using these percentage inhibitions, EOB were calculated. Expected Bliss additivism score (E) was firstly determined by the equation: E=(A+B)−(A×B) where A and B are the percentage inhibition of elafibranor (A) and GLP-1 analogue (B) at a given dose.
The total Bliss score was calculated by addition of all EOB.

Compound	hypophagia (energy consumption) (NASH-B6 mice)	liver fat / hepatic triglyceride content (DIO-NASH mice [1])	decrease of plasma CRP relative to AMLN-fed vehicle group (DIO-NASH mice [2]; high-dose semaglutide 10 nmol/kg/day SC (FIG. 18)) [%]	effect on plasma ALT (DIO-NASH mice [2]; low dose semaglutide 0.3 nmol/kg/day SC (FIG. 17))	effect on plasma CRP (DIO-NASH mice [2]; low-dose semaglutide 0.3 nmol/kg/day SC (FIG. 18))	hepatic gene signature (gene ontology: inflammatory response, cytokine production, immune cell activation and migration) (DIO-NASH mice [3]; high-dose semaglutide 10 nmol/kg/day (FIG. 19))	hepatic gene signature (gene ontology: inflammatory pathways) (DIO-NASH mice [3]; low-dose SEMA 0.3 nmol/kg/day (FIG. 19))	mice showing NAS reduction beyond 1 stage (DIO-NASH mice [4])	glycemia (DIO-NASH mice [5])	insulinemia (DIO-NASH mice [6])	maximal effect, TNFα inhibition [7] [%]
CCCCCCCCCCCCCCCC(=O)N[C@@H](CCC(=O)NCCCC[C@H](NC(=O)[C@H](C)NC(=O)[C@H](C)NC(=O)[C@H](CCC(N)=O)NC(=O)CNC(=O)[C@H](CCC(=O)O)NC(=O)[C@H](CC(C)C)NC(=O)[C@H](Cc1ccc(O)cc1)NC(=O)[C@H](CO)NC(=O)[C@H](CO)NC(=O)[C@@H](NC(=O)[C@H](CC(=O)O)NC(=O)[C@H](CO)NC(=O)[C@@H](NC(=O)[C@H](Cc1ccccc1)NC(=O)[C@@H](NC(=O)CNC(=O)[C@H](CCC(=O)O)NC(=O)[C@H](C)NC(=O)[C@@H](N)Cc1cnc[nH]1)[C@@H](C)O)[C@@H](C)O)C(C)C)C(=O)N[C@@H](CCC(=O)O)C(=O)N[C@@H](Cc1ccccc1)C(=O)N[C@H](C(=O)N[C@@H](C)C(=O)N[C@@H](Cc1c[nH]c2ccccc12)C(=O)N[C@@H](CC(C)C)C(=O)N[C@H](C(=O)N[C@@H](CCCNC(=N)N)C(=O)NCC(=O)N[C@@H](CCCNC(=N)N)C(=O)NCC(=O)O)C(C)C)[C@@H](C)CC)C(=O)O [liraglutide]	no hypophagia effect	–	–	–	–	–	–	–	–	–	–
semaglutide: commercially available GLP-1 receptor agonist	–	significant beneficial effect	43	inefficient	inefficient	reverted the pathological signature	inefficient	None of the mice	no beneficial effect	significant beneficial effect	29
